The text below walks through data of patent US20210087565A1, “ANTISENSE ANTIBIOTICS AND BACTERIAL SECRETION BASED DELIVERY SYSTEM TO ELIMINATE DRUG-RESISTANT BACTERIA” (priority 2018, published 2021).

“Also recorded” adds a separate entry of the source. Where two headings read alike, the source gives them in different places.

In data set [1] the test system is clinical isolates of Enterobacteriaceae. Kind of data set: Antibiotic resistance screening (MIC against CLSI breakpoints), all strains. Particulars: CLSI 2016-2017 breakpoints. Type of data set: cell-based. Here is the method:
(§1) Phenotypic antibiotic resistance characterization of the clinical isolates was performed to determine “sensitive” (S), “intermediate” (I), and “resistant” (R) phenotypes using the 2016-2017 Clinical & Laboratory Standards Institute (CLSI) sensitive/resistant breakpoint values (Table 4).
(§2) Antibiotic resistance screening: Sensitive/resistant breakpoints were taken from the 2016-2017 Clinical & Laboratory Standards Institute report (Table 4). Liquid cultures of the clinical strains were diluted to a 0.5 McFarland standard and added to the respective antibiotic test condition. The antibiotic minimum inhibitory concentration (MIC) for each clinical isolate was determined as the lowest antibiotic concentration which prevented visible cell growth for 24 h. Strains were: “sensitive” if the MIC was equal to or below the sensitive-breakpoint concentration, “resistant” if the MIC was greater than or equal to the resistant-breakpoint concentration, and “intermediate” if the MIC was in-between.

Data set [2] deals with NDM-1 KPN. The data set is described as follows: Antibiotic resistance screening (MIC against CLSI breakpoints). It is filed as cell-based, Klebsiella pneumoniae. To be noted: meropenem, CLSI 2016-2017 breakpoints. Here is the method: as §1, §2
In data set [3] the test system is SL1344-mCherry in HeLa cells. The data set is described as follows: Double infection of HeLa cells, PNA delivery and release by SL1344-Holin. It is filed as cell-based, Salmonella enterica serovar typhimurium. Here is the method:
FIG. 14. Combining the bacterial Type III secretion system (T3SS) and the holing/endolysin kill switch for PNA delivery and release. (A) Schematic showing the PNA deliver and release approach using the T3SS and Holin systems respectively to treat an intracellular infection of HeLa cells. HeLa cells were seeded 24 hours prior to infection. A 4:1 mixture of SL1344-Holin to SL1344-mCherry cells with (Bottom) and without (Top) 45 minute PNA pretreatment used to infect HeLa cells for 45 minutes. (Bottom) The PNA enters SL1344-Holin during the 45 minute pretreatment and is carried into the HeLa cell during infection. Following infection and gentamicin protection, the PNA is released from the SL1344-Holin during the 18-hours of treatment to target the SL1344-mCherry population. After 18-hours of incubation the HeLa cells are lysed to determine the number of intracellular colony forming units. (B) Normalized intracellular bacterial load represented as the ratio of normalized SL1344-mCherry:
To that end, the present inventors built a “delivery strain” of Salmonella by expressing the holin lysis cassette, encoding a holin-antiholin according to SEQ ID NO. 34, under control of an inducible laciQ promoter (referred to as SL1344-Holin, FIG. 24), and a therapeutic “target strain” of Salmonella by expressing mCherry from a plasmid in SL1344 (referred to as SL1344-mCherry). The present inventors followed the same infection protocol as described above with few modifications and treated cells with a different PNA, α-recA (N′-[…]-AEEA-[…]-C′), to show the generalizability of the assay. […] As with the previous experiment, the present inventors allowed the Salmonella to uptake the PNA during a 45 minute incubation where the treatment condition (referred to as T3SS-PNA) consisted of SL1344-Holin incubated with 10 μM of α-recA in phosphate buffer saline (PBS) and the no treatment was incubated in only PBS. In parallel, equal cell densities of the target strain SL1344-mCherry was incubated with PBS for 45-minutes. SL1344-Holin (with or without PNA) and SL1344-mCherry cells were washed and mixed in a ratio of 4:1 respectively to achieve a final total MOI of approximately 10:1 for infection of HeLa cells. The infection was carried out for 45 minutes followed by the removal of extracellular bacteria using a gentamicin wash (FIG. 5A), and 18 hours of incubation in fresh growth medium containing gentamicin. […] To account for this variation, the present inventors measured the extracellular and intracellular bacterial load before and after infection respectively and reported the normalized ratio of the latter to the former (FIG. 5B-C, FIG. 26). […]

Data set [4] has as its system SL1344. The data set is described as follows: Growth inhibition of SL1344 in broth culture. Particulars: 10 μM, 24 hours. Type of data set: cell-based, Salmonella enterica serovar typhimurium. As to the method: FIG. 25. α-recA growth inhibition of SL1344. Optical density was measured at 600 nm in 50 μL cultures and normalized optical density is reported at 24 hours as absorbance at 600 nm minus media blank and each biological replicate normalized to the optical density reading at time zero. Overnight cultures of SL1344 were diluted 1:10,000 and treated with 10 μM addition of α-recA for 24 hours. Error bars indicate standard deviation of n=3 biological replicates.

Data set [5] concerns CRE E. coli. The data set is described as follows: PNA growth assay (optical density) on clinical isolate. Type of data set: cell-based, Escherichia coli. Particulars: for growth inhibition: 10 μM PNA, optical density vs no treatment at 16 hours. As to the method: (§3) Bacterial Cell culture: The clinical isolates were obtained from the lab of Nancy Madinger at the University of Colorado Anschutz campus. Clinical isolates were grown in Cation Adjusted Mueller Hinton broth (CAMHB) (Becton, Dickinson and Company 212322) at 37° C. with 225 rpm shaking or on solid CAMHB with 1.5% agar at 37° C. Clinical isolates were maintained as freezer stocks in 90% CAMHB, 10% glycerol at −80° C. Freezer stocks were streaked out onto solid CAMHB and incubated for 16 h to produce single colonies prior to experiments. For each biological replicate, a single colony was picked from solid media and grown for 16 h in liquid CAMHB prior to experiments. Non-clinical isolates, such as E. coli MG1655 (ATCC700926) and Salmonella entorica serovar typhimurium SL1344, were cultured in liquid 2% lysogeny broth (LB) or on 2% LB with 1.5% agar for solid plates. S. typhimurium cultures were supplemented with 30 μg/mL streptomycin and SL1344 strains containing plasmids pFPV (SL1344-mCherry) or pRG1 modified with a lacIq promoter (SL1344-Holin) were supplemented with 100 μg/mL ampicillin. Freezer stocks were stored in 60% LB broth, 40% glycerol at −80° C. Freezer stocks were streaked out onto solid LB and incubated for 16 h to produce single colonies before experiments. For biological replicates, single colonies were started in liquid LB and grown for 16 hours prior to experiments. E. coli MG1655 PNA growth experiments were carried out in M9 media (1×M9 minimal media salts solution (MP Biomedicals), 2.0 mM MgSO4, and 0.1 mM CaCl2 in sterile water) with 0.4% glucose.
(§4) PNA growth assay: Biological replicates were diluted 1:10,000 into treatment condition in 384-well plates and measured for 24 h in a Tecan GENios at 562 nm with a bandwidth of 35 nm. Media absorbance blanks were subtracted from data prior to analysis. Normalized optical density (OD) data is shown normalized to the time point where the “no treatment” growth curves reached saturation phase which varied across biological replicates.

Data set [6] concerns MDR E. coli. The data set is described as above. It is filed as cell-based, Escherichia coli. Particulars: for growth inhibition: 10 μM PNA, optical density vs no treatment at 16 hours. Here is the method:
as §3, §4

In data set [7] the test system is ESBL KPN. The description is as above. Type of data set: cell-based, Klebsiella pneumoniae. Particulars: for monotherapy effect (in words): 10 μM. As to the method:
as §3, §4

Data set [8] has as its system MDR STm. Described as above. It is filed as cell-based, Salmonella enterica serovar typhimurium. Particulars: MDR STm; 10 μM PNA; optical density vs no treatment at 16 hours. As to the method: as §3, §4
The test system of data set [9] is ESBL KPN. Kind of data set: Potentiation of antibiotics with PNAs (Bliss Independence). It is filed as cell-based, Klebsiella pneumoniae. Particulars: 10 μM PNA + 2 μg/mL tetracycline; for S-value (Bliss Independence model): S>0 indicates synergy. As to the method:
(§5) Combinatorial effects were evaluated using the Bliss Independence model where the S parameter defines a deviation from no interaction as is defined as: […]
(§6) Where ODAB is the OD at saturation time in only antibiotic, OD0 is the OD at saturation in no treatment, ODPNA is the OD at saturation in only antisense-PNA at 10 μM, and ODAB, PNA is the OD at saturation in a combination of antibiotic and antisense-PNA. Saturation time was determined as the time when the no treatment control reached its saturation growth phase. S>0 is a deviation towards synergy and S<0 is a deviation towards antagonism.

The subject of data set [10] is E. coli MG1655. The data set is described as follows: Growth curves and CFU of lab strain treated with PNA. It is filed as cell-based, Escherichia coli. Particulars: 10 μM. As to the method:
FIG. 7. Dose response of various PNA. Optical density of a 1:10,000 dilution of MG6155 from overnight liquid culture, treated with various concentrations of antisense inhibitors was measured for 3 biological replicates with error bars as standard deviations. Normalized growth was measured as the optical density at 22 hours normalized to no treatment. An asterisk (*) indicates a significant difference (p<0.05) as compared to no treatment for each inhibitor.
FIG. 8. Antisense Inhibitors targeting novel pathways can inhibit growth of E. coli. z. (A) Growth curves of E. coli MG1655 from a 1:10,000 dilution from an overnight culture, normalized to time t=0 with 10 μM of respective antisense inhibitor. […] (B) Colony forming units per milliliter of MG1655 E. coli for respective treatment as a function of time. The CFU/mL at t=0 represents the starting culture after a 1:100,000 dilution from overnight culture. […] Significance is measured as p<0.05.
as §3
PNA growth assay: Biological replicates were diluted 1:10,000 into treatment condition in 384-well plates and measured for 24 h in a Tecan GENios at 562 nm with a bandwidth of 35 nm. Media absorbance blanks were subtracted from data prior to analysis. […]

In data set [11] the test system is CRE E. coli. Type of data set: cell-based, Escherichia coli. To be noted: for S-value (Bliss Independence model): S>0 indicates synergy; for growth with combination therapy (in words): p<0.05. Here is the method: as §5, §6
Setting [12] is: 10 μM PNA + chloramphenicol 8 μg/mL.

Consider `CC1(C)S[C@@H]2[C@H](NC(=O)[C@H](N)c3ccccc3)C(=O)N2[C@H]1C(=O)O` [ampicillin], for which the antibiotic resistance phenotype result in data set [1] (ampicillin) is “resistant”.
With `CO/N=C(\C(=O)N[C@@H]1C(=O)N2C(C(=O)O)=C(CSc3nc(=O)c(=O)[nH]n3C)CS[C@H]12)c1csc(N)n1` [ceftriaxone], in data set [1] (ceftriaxone), the antibiotic resistance phenotype entry was “resistant”.
For `C[C@@H](O)[C@H]1C(=O)N2C(C(=O)O)=C(S[C@@H]3CN[C@H](C(=O)N(C)C)C3)[C@H](C)[C@H]12` [meropenem], the antibiotic resistance phenotype result in [2] is reported as “resistant”.
As to “N′-KFFKFFKFFK-AEEA-GTCGATAGCAT-C′ [α-recA]”, in data set [3] (SL1344-Holin pretreated 45 minutes with 10 μM PNA, HeLa cells, 18 hours, compared to no treatment), the “drop of normalized ratio of SL1344-mCherry to SL1344-Holin” value is reported as 99.6±0.72%. In addition, in data set [3] (two out of three biological replicates, across a range of MOI), the “fate of target strain SL1344-mCherry (in words)” value is on record as “completely eliminated”. In addition, the “normalized mCherry/Holin (in words)” value is “Significant decrease” in data set [3] (with 1 mM IPTG during treatment, p=0.006) and “Significant decrease” in [3] (without IPTG (leaky expression), p=0.026). In data set [4], the “effect on Salmonella in broth cultures (in words)” value was “lethal”.
Turning to “α-ffh: 12-mer antisense PNA GACAATGTTTGA (SEQ ID NO. 16) targeting ffh, conjugated to (KFF)3K cell penetrating peptide via AEEA-linker (all peptide nucleic acid (PNA); (KFF)3K cell-penetrating peptide attached via AEEA linker)”, the growth inhibition in [5] is listed as 98±1.5%; in data set [6] it was 99±0.9%; in [8], 99±0.8%. Besides, the “monotherapy effect (in words)” value in [7] is reported as “no or minimal growth inhibition”. Besides, the “growth with combination therapy (in words)” value in [9] is reported as “significant growth inhibition compared to each monotherapy”. Also, the “S-value (Bliss Independence model)” value in data set [9] was “positive”.
On to “α-gyrB: 12-mer antisense PNA GTTGATGTCGAA (SEQ ID NO. 18) targeting gyrB, conjugated to (KFF)3K cell penetrating peptide via AEEA-linker (all peptide nucleic acid (PNA); (KFF)3K cell-penetrating peptide attached via AEEA linker)”, for which the “monotherapy effect (in words)” value was “partial therapeutic effect; also recorded: effective in killing” in [5] (10 μM), “effective in killing” in data set [6] and “no or minimal growth inhibition” in data set [7]. Besides, the growth inhibition in data set [5] is 71±12%; in data set [6], 36±14.2%; in data set [7] (10 μM PNA, optical density vs no treatment at 16 hours) it was 5±1.4%; in data set [8], 74±15.4%. Besides, the “effect on growth (in words)” value in data set [10] was “effective in killing”. In addition, the results for the “S-value (Bliss Independence model)” value in data set [11] (setting [12]), in [11] (10 μM PNA + gentamicin 4 μg/mL) and in data set [9] were 0.27, 0.19 and “positive”, respectively. Further, the “growth with combination therapy (in words)” value was “significant growth inhibition with combination therapy compared to each monotherapy” in data set [11] (setting [12]), “significant growth inhibition with combination therapy compared to each monotherapy” in [11] (10 μM PNA + gentamicin 4 μg/mL) and “significant growth inhibition compared to each monotherapy” in data set [9].
